According to paper PMC9837035 (Nature Communications, 2023):
Where “and” joins values, the source holds several entries; their conditions need not be identical. Equal entries are not always repeated.

Columns and labels:
[1] = test system: BGLT3 RNA in HUDEP-2 cells; experiment: RT-qPCR of BGLT3 in HUDEP-2 cells; type: cell-based, human; settings: Sup.Fig.11a; relative to DMSO = 1; replicate values
Method: (§1) Total cellular RNA was prepared using the Tissue Total RNA Mini Kit (FAVORGEN), and cDNA was synthesized using ReverTra Ace Master Mix (TOYOBO). Expression of target genes was analyzed using THUNDERBIRD SYBR qPCR Mix (TOYOBO) on a CFX Connect Real Time System (Bio-Rad). The qPCR data were acquired on CFX Maestro (Bio-Rad). Primers are listed in Supplementary Table 10. GAPDH was used as a reference. Primers were purchased from INTEGRATED DNA TECHNOLOGIES or FASMAC.

[2] = test system: BGLT3-knockdown HUDEP-2 cells; experiment: RT-qPCR of BGLT3, β- and γ-globin in BGLT3-knockdown HUDEP-2 cells; type: cell-based, human; settings: 1 μM, relative to shctrl DMSO = 1, replicate values
Method: as §1
Retroviral infection was used as previously described to establish cell lines stably expressing BGLT3 and transfected with the pCX4-pur vector, as well as knockdown cell lines transfected with the pSUPER vector[58]. Briefly, retroviruses were produced by transfecting PLAT-E cells with pCX4-pur-BGLT3 or pSUPER-ctrl, pSUPER-BGLT3, or pSUPER-G9a using 5 μg/mL polyethylenimine MAX (PEI MAX, Polysciences). Two days after transfection, the culture supernatant was collected and filtered through a 0.45-μm filter (Millipore) and used for infection with 8 μg/mL polybrene (Sigma). Forty-eight hours after infection, the infected cells were selected with 0.2 μg/mL puromycin (InvivoGen). The clonal puromycin-resistant cells were established via limiting dilution. The desired clones were confirmed by western blotting or qPCR.

[3] = test system: H3K9ac at the β-globin locus; experiment: ChIP-qPCR with antibody against H3K9ac in HUDEP-2 cells; type: cell-based, human; parameters: ChIP-qPCR using antibodies against H3K9ac in HUDEP-2 cells treated with SAHA: unit not given here; settings: for ChIP-qPCR using antibodies against H3K9ac in HUDEP-2 cells treated with SAHA: experiments 1-3, a/b replicates
Method: A total of 0.5–1 × 10^6 cells were cross-linked with 1% formaldehyde for 10 min at room temperature and the reaction was quenched with 250 mM glycine. Cross-linked cells were then lysed with buffer 1 (15 mM Tris-HCl (pH 7.5), 60 mM KCl, 15 mM NaCl, 5 mM MgCl2, 0.1 mM EGTA, 300 mM sucrose, […], 1 mM phenylmethanesulfonyl fluoride (PMSF), 0.5% NP40) and incubated on ice for 10 min. […] After centrifugation, the pellet was then re-suspended in MNase buffer (50 mM Tris-HCl (pH 7.5), 1 mM CaCl2, 4 mM MgCl2, 320 mM sucrose, 1 mM PMSF) and digested with 100 U of micrococcal nuclease (Takara) at 37 °C for 15 min. […] Beads were washed sequentially once with the following buffers: wash buffer A (50 mM Tris-HCl (pH 7.5), 75 mM NaCl, 10 mM EDTA, 0.01% NP40), wash buffer B (50 mM Tris-HCl (pH 7.5), 100 mM NaCl, 10 mM EDTA, 0.01% NP40), wash buffer C (50 mM Tris-HCl (pH 7.5), 175 mM NaCl, 10 mM EDTA, 0.01% NP40). After treatment with proteinase K in buffer 4 (20 mM Tris-HCl (pH 8.0), 10 mM EDTA, 400 mM NaCl, 0.5% SDS) at 56 °C overnight, DNA was purified using the FastGene Gel/PCR Extraction Kit (Nippon Genetics). The samples were analyzed by qPCR. Primers are listed in Supplementary Table 10. ChIP-seq experiments were performed by GENEWIZ. Tracks were visualized using the integrative genome viewer. ChIP-seq analysis were analyzed Cutadapt (V1.9.1) for QC, FastQC (V0.10.1) for QC assessment, Bowtie (V2.1.0) for mapping, strand cross-correlation (SCC) for ChIP quality assessment, MACS2 for peak calling, and R package ChIPpeakAnno for Peak annotated.

[4] = test system: rat myoblast cell line H9c2; experiment: Cell viability assay (WST-8), H9c2; type: cell-based; settings: control (0 μM) = 100
Method: (§2) A WST-8 (2-(2-methoxy-4-nitrophenyl)-3-(4-nitrophenyl)-5-(2,4-disulfophenyl)-2H-tetrazolium) assay using a Cell Counting Kit-8 (DOJINDO) was performed to measure cell viability using an EnSpire microplate reader (PerkinElmer).

[5] = Cell viability assay (WST-8), HUDEP-2; type: cell-based, human; settings: human, HUDEP-2 cells, control (0 μM) = 100
Method: as §2

HUDEP-2 cells = experiment: Cell viability assay (WST-8), HUDEP-2; type: cell-based, human; settings: control (0 μM) = 100
Method: as §2

mice = experiment: Mouse acute toxicity assay, survival; type: in vivo; settings: intravenous, 2-week observation
Method: All animal studies were approved by the Institutional Committee for Animal Experiments of the Institute of Microbial Chemistry, and were performed in accordance with relevant guidelines and regulations to minimize animal suffering. Four-week-old female ICR mice were purchased from Charles River Breeding Laboratories (Yokohama, Japan) and maintained in a specific pathogen-free barrier facility. […] Samples were dissolved in saline containing 10% DMSO and 1% Tween 80 and injected intravenously into mice.

In the case of `O=C(CCCCCCC(=O)Nc1ccccc1)NO` [SAHA], the “BGLT3 expression in HUDEP-2 cells” value [1] was 4.739 and 6.125 and 5.109, the “β-globin gene in BGLT3-knockdown HUDEP-2 cells” value ([2]; shBGLT3 #1) was 2.301 and 2.189 and 2.546 and the “γ-globin gene in BGLT3-knockdown HUDEP-2 cells” value (“γ-globin gene” for short) ([2]; shBGLT3 #1) was 4.852 and 4.747 and 4.193. For the same molecule, the “β-globin gene in BGLT3-knockdown HUDEP-2 cells” value ([2]; shBGLT3 #2) was 1.2128 and 1.2413 and 1.0394, the “γ-globin gene” value ([2]; shBGLT3 #2) was 3.094 and 3.659 and 2.955 and the “β-globin gene in BGLT3-knockdown HUDEP-2 cells” value ([2]; shBGLT3 #3) was 2.448 and 2.303 and 2.192. The “γ-globin gene” value ([2]; shBGLT3 #3) was 2.0995 and 2.031 and 1.807, the “β-globin gene in BGLT3-knockdown HUDEP-2 cells” value ([2]; shctrl) was 3.928 and 4.654 and 3.722 and the “γ-globin gene” value ([2]; shctrl) was 13.6262 and 15.6907 and 11.2259. The “ChIP-qPCR using antibodies against H3K9ac in HUDEP-2 cells treated with SAHA” value (from here on “ChIP-qPCR using antibodies”) ([3]; BGLT3 locus) was 4.594 and 4.901 and 3.587 and 4.136 and 7.628 and 5.8678, the “ChIP-qPCR using antibodies” value ([3]; HS1) was 3.554 and 4.79 and 1.956 and 6.9673 and 5.354 and the “ChIP-qPCR using antibodies” value ([3]; HS2) was 3.581 and 3.815 and 1.139 and 1.6187 and 3.866 and 3.138. The “ChIP-qPCR using antibodies” value ([3]; HS3) was 2.6549 and 2.681 and 1.467 and 2.973 and 2.979, the “ChIP-qPCR using antibodies” value ([3]; HS4) was 3.747 and 4.945 and 3.035 and 2.8654 and 4.964 and 4.658 and the “histone H3 acetylation at the β-globin gene locus” value ([3]; HUDEP-2, 1 μM, 1 day) was “increased”. The “ChIP-qPCR using antibodies” value ([3]; β-globin promoter) was 1.524 and 1.253 and 1.188 and 2.806 and 2.767, the “ChIP-qPCR using antibodies” value ([3]; γ-globin promoter) was 0.7378 and 1.324 and 1.03 and 1.066 and 1.991 and 1.048 and the “ChIP-qPCR using antibodies” value ([3]; δ-globin promoter) was 4.601 and 5.375 and 3.661 and 4.076 and 5.898 and 5.487.

With `COc1cc2c(NC3CCN(C(C)C)CC3)nc(N3CCC(F)(F)CC3)nc2cc1OCCCN1CCCC1` [UNC0642] the “cell viability in H9c2 cells” value ([4]; 0.039 μM) was 113.444 and 97.977 and 82.062, the “cell viability in H9c2 cells” value ([4]; 0.156 μM) was 119.033 and 94.058 and 85.452 and the “cell viability in H9c2 cells” value ([4]; 0.625 μM) was 120.242 and 96.207 and 89.831. For the same molecule, the “cell viability in H9c2 cells” value ([4]; 2.5 μM) was 126.737 and 89.381 and 103.107, the “cell viability in H9c2 cells” value ([4]; 10.0 μM) was 69.940 and 117.826 and 118.079 and the viability at 0.00457247 μM ([5]; 0.00457247 μM) was 97.1%. It also gave a viability at 0.0137174 μM ([5]; 0.0137174 μM) of 87.4%, a viability at 0.0411523 μM ([5]; 0.0411523 μM) of 86.5% and a viability at 0.123457 μM ([5]; 0.123457 μM) of 92.1%. The viability at 0.37037 μM ([5]; 0.37037 μM) was 85.8%, the viability at 1.11111 μM ([5]; 1.11111 μM) was 85.2% and the viability at 3.33333 μM ([5]; 3.33333 μM) was 54.8%. For the same molecule, the viability at 10 μM ([5]; 10 μM) was 8.77%, the “cell viability in HUDEP-2 cells” value (HUDEP-2 cells; 0.00457247 μM) was 98.5098 and 95.7411 and the “cell viability in HUDEP-2 cells” value (HUDEP-2 cells; 0.0137174 μM) was 90.6667 and 93.356. The “cell viability in HUDEP-2 cells” value (HUDEP-2 cells; 0.0411523 μM) was 91.9216 and 91.6525, the “cell viability in HUDEP-2 cells” value (HUDEP-2 cells; 0.123457 μM) was 105.098 and 92.3339 and the “cell viability in HUDEP-2 cells” value (HUDEP-2 cells; 0.37037 μM) was 89.4118 and 91.9932. The “cell viability in HUDEP-2 cells” value (HUDEP-2 cells; 1.11111 μM) was 93.8039 and 89.2675, the “cell viability in HUDEP-2 cells” value (HUDEP-2 cells; 3.33333 μM) was 61.4902 and 56.2181 and the “cell viability in HUDEP-2 cells” value (HUDEP-2 cells; 10 μM) was 12.549 and 12.2658. The “Number of alive mice” value (mice; 1.5625 mg/kg) was 3/3, the “Number of alive mice” value (mice; 3.125 mg/kg) was 3/3 and the “Number of alive mice” value (mice; 6.25 mg/kg) was 2/3. The “Number of alive mice” value (mice; 12.5 mg/kg) was 1/3 and the “Number of alive mice” value (mice; 25 mg/kg) was 0/3.
